Literature values as cited in patent US10232018B2, “ACTH for treatment of acute respiratory distress syndrome” (MALLINCKRODT ARD IP LIMITED, priority 2013, dated 2019).

Tests used:
[1] = Baumann and Felber, 1976

Row | Substance | partial agonist activity in adrenal stimulation assays in comparison to ACTH1-24 as control (adrenal stimulation) | duration of action compared with 1-24 [1]
1 | ACTH1-23: ACTH fragment 1-23, partial agonist in Hofmann et al. (1970) (SYSMEHFRWGKPVGKKRRPVKVY; Corticotropin; UniProt P01189 138-160, looked up, fragment) | 91% | 
2 | human 1-39: human ACTH 1-39 (SYSMEHFRWGKPVGKKRRPVKVYPNGAEDESAEAFPLEF; Corticotropin; UniProt P01189 138-176, looked up) |  | longer duration of action
